Assay results reported in ChEMBL document CHEMBL5113519, “Discovery of Novel Imidazo[4,5-c]quinoline Derivatives to Treat Inflammatory Bowel Disease (IBD) by Inhibiting Multiple Proinflammatory Signaling Pathways and Restoring Intestinal Homeostasis” (J Med Chem, 2022).
Active and inactive are the calls of the source.

Tests used:
THP1-Dual [1] = test: Downregulation of JAK/STAT in human THP1-Dual cells at 1 uM incubated for 6 hrs; format: functional, cell-based
Mus musculus [2] = test: Anti-inflammatory bowel disease activity in DSS-induced acute enteritis mouse model assessed as decrese in bacteroides abundance at 3 mg/kg; format: functional, organism-based
Mus musculus [3] = test: Anti-inflammatory activity in TNBS induced IBD BALB/c mouse model assessed as reduction in bloody stool by measuring disease activity index score at 1 to 5 mg/kg via oral gavage administered daily for 12 days; format: functional, organism-based; details: dose 1-5 mg/kg, time 12.0 day
THP1-Dual [4] = test: Anti-inflammatory activity against LPS-stimulated human THP1-Dual cells assessed as reduction in STAT3 phosphorylation level incubated for 6 hrs by Western blot analysis; format: functional, cell-based; details: dose 0.33-3 µM, DDE = dose-dependent effect
Mus musculus [5] = test: Antiinflammatory activity in DSS-induced acute colitis C57BL/6 mouse model assessed as reduction in number of goblet cells in colon by measuring histopathological score at 1 to 3 mg/kg, po by H and E staining based analysis; format: functional, organism-based; details: dose 1-3 mg/kg
Mus musculus [6] = test: Anti-inflammatory bowel disease activity in DSS-induced acute enteritis mouse model assessed as decrese in lactobacillus abundance at 3 mg/kg; format: functional, organism-based
[7] = Toxicity in mouse assessed as change in body weight at 50 mg/kg measured upto 2 weeks; format: organism-based; details: in vivo, 336 h
THP1-Dual [8] = test: Downregulation of complement system in human THP1-Dual cells at 1 uM incubated for 6 hrs; format: functional, cell-based
[9] = Cytotoxicity against human THP1-Dual cells assessed as inhibition of cell growth measured after 24 hrs by CCK-8 method; format: toxicity, cell-based
Mus musculus [10] = test: Anti-inflammatory activity in TNBS induced IBD BALB/c mouse model assessed as reduction in weight by measuring disease activity index score at 1 to 5 mg/kg via oral gavage administered daily for 12 days measured daily; format: functional, organism-based; details: dose 1-5 mg/kg, time 12.0 day
THP1-Dual [11] = test: Inhibition of LPS induced TNF alpha expression in human THP1-Dual cells at 1 uM incubated for 6 hrs; format: functional, cell-based
THP1-Dual [12] = test: Downregulation of unfolded protein response in human THP1-Dual cells at 1 uM incubated for 6 hrs; format: functional, cell-based
Mus musculus [13] = test: Antiinflammatory activity in DSS-induced acute colitis C57BL/6 mouse model assessed as recovery of colon length at 1 to 3 mg/kg, po administered daily and measured upto 11 days; format: functional, organism-based; details: dose 1-3 mg/kg, time <= 11.0 day
[14] = Toxicity in mouse assessed as behavioral changes at 20 to 50 mg/kg, IG measured upto 2 weeks; format: organism-based; details: in vivo, po, 336 h, dose 20-50 mg/kg
Mus musculus [15] = test: Antiinflammatory activity in DSS-induced acute colitis C57BL/6 mouse model assessed as reduction in intestinal edema in colon by measuring histopathological score at 1 to 3 mg/kg, po by H and E staining based analysis; format: functional, organism-based; details: dose 1-3 mg/kg
THP1-Dual [16] = test: Inhibition of LPS induced IL12b expression in human THP1-Dual cells at 1 uM incubated for 6 hrs; format: functional, cell-based
Mus musculus [17] = test: Anti-inflammatory bowel disease activity in DSS-induced acute enteritis mouse model assessed as reversal of intestinal microbiota at 3 mg/kg; format: functional, organism-based
THP1-Dual [18] = test: Inhibition of LPS induced IL-1 beta expression in human THP1-Dual cells at 1 uM incubated for 6 hrs; format: functional, cell-based
[19] = Toxicity in mouse assessed as abnormal change in kidney at 50 mg/kg, IG measured upto 2 weeks; format: organism-based; details: in vivo, po, 336 h
Mus musculus [20] = test: Antiinflammatory activity in DSS-induced acute enteritis C57BL mouse model assessed as suppression of DSS induced weight loss at 3 mg/kg, po administered daily and measured upto 11 days relative to control; format: functional; details: time <= 11 day
Mus musculus [21] = test: Antiinflammatory activity in DSS-induced acute colitis C57BL/6 mouse model assessed as reduction in inflammatory cell infiltration in colon by measuring histopathological score at 1 to 3 mg/kg, po by H and E staining based analysis; format: functional, organism-based; details: dose 1-3 mg/kg
THP1-Dual [22] = test: Anti-inflammatory activity against LPS-stimulated human THP1-Dual cells assessed as inhibition of IL-6 secretion incubated for 6 hrs followed by LPS stimulation by Western blot analysis; format: functional, cell-based; details: dose 0.33-3 µM, DDE = dose-dependent effect
Mus musculus [23] = test: Antiinflammatory activity in DSS-induced acute colitis C57BL/6 mouse model assessed as reduction in weight loss by measuring DAI score at 1 to 3 mg/kg, po administered daily and measured upto 11 days; format: functional, organism-based; details: dose 1-3 mg/kg, time <= 11.0 day
[24] = Toxicity in mouse assessed as abnormal change in spleen at 20 to 50 mg/kg, IG measured upto 2 weeks; format: organism-based; details: in vivo, po, 336 h, dose 20-50 mg/kg
[25] = Toxicity in mouse assessed as drug tolerability at 20 to 50 mg/kg, IG measured upto 2 weeks; format: organism-based; details: in vivo, po, 336 h, dose 20-50 mg/kg
[26] = Toxicity in mouse assessed as abnormality in gastrointestinal tract at 20 to 50 mg/kg, IG measured upto 2 weeks; format: organism-based; details: in vivo, po, 336 h, dose 20-50 mg/kg
[27] = Cytotoxicity against human HUVEC cells assessed as inhibition of cell growth measured after 24 hrs by CCK-8 method; format: toxicity, cell-based
[28] = target: Tyrosine-protein kinase JAK1 (Homo sapiens, UniProt P23458); test: Inhibition of JAK1 (unknown origin) using Kinase/Tyr 6 peptide as substrate incubated for 1 hrs in presence of ATP by fluorescence microplate reader analysis
Chain of Tyrosine-protein kinase JAK1 (P23458 whole entry): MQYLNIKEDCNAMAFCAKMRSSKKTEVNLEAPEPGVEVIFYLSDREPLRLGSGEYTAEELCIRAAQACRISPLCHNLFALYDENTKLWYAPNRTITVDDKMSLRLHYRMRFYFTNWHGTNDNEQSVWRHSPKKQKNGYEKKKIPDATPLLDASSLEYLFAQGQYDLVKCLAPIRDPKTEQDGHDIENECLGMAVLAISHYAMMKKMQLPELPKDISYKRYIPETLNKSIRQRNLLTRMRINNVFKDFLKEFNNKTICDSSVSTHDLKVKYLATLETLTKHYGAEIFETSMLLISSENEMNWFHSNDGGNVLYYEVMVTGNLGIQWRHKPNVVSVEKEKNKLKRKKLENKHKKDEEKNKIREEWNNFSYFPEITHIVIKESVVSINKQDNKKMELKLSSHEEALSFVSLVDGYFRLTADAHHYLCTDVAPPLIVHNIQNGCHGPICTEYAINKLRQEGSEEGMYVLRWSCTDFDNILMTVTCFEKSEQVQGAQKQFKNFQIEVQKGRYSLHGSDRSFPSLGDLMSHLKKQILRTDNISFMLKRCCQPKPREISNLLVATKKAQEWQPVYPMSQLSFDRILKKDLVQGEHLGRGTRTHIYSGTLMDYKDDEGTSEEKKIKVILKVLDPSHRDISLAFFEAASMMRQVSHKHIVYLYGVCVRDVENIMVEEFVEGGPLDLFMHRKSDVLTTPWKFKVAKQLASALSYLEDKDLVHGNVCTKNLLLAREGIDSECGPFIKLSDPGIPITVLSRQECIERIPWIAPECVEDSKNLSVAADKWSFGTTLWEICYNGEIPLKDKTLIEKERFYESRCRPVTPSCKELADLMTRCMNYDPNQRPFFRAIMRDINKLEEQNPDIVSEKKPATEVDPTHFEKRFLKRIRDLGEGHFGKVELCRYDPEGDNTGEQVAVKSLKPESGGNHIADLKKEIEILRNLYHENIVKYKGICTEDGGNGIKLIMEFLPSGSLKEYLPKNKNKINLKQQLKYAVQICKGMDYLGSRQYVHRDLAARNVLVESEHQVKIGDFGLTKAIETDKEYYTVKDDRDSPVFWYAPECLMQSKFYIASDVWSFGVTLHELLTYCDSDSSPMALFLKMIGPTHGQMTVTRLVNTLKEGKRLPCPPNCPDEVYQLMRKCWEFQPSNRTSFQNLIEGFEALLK

[29] = Toxicity in mouse assessed as effect on neutrophils number at 20 to 50 mg/kg, IG measured upto 2 weeks; format: organism-based; details: in vivo, po, 336 h, dose 20-50 mg/kg
[30] = Toxicity in mouse assessed as effect on white blood cell number at 50 mg/kg, IG measured upto 2 weeks; format: organism-based; details: in vivo, po, 336 h
THP1-Dual [31] = test: Anti-inflammatory activity against LPS-stimulated human THP1-Dual cells assessed as inhibition of IL-8 secretion incubated for 6 hrs followed by LPS stimulation by Western blot analysis; format: functional, cell-based; details: dose 0.33-3 µM, DDE = dose-dependent effect
THP1-Dual [32] = test: Inhibition of LPS induced IL-23A expression in human THP1-Dual cells at 1 uM incubated for 6 hrs; format: functional, cell-based
Mus musculus [33] = test: Antiinflammatory activity in DSS-induced acute colitis C57BL/6 mouse model assessed as reduction in colon villi integrity in colon by measuring histopathological score at 1 to 3 mg/kg, po by H and E staining based analysis; format: functional, organism-based; details: dose 1-3 mg/kg
Mus musculus [34] = test: Anti-inflammatory activity in TNBS induced IBD BALB/c mouse model assessed as increase in survival probability at 5 mg/kg via oral gavage administered daily for 12 days; format: functional, organism-based; details: time 12.0 day
THP1-Dual [35] = test: Anti-inflammatory activity against LPS-stimulated human THP1-Dual cells assessed as reduction in phosphorylation of NF-kappa B level incubated for 6 hrs by Western blot analysis; format: functional, cell-based; details: dose 0.33-3 µM, DDE = dose-dependent effect
THP1-Dual [36] = test: Downregulation of IFN-alpha in human THP1-Dual cells at 1 uM incubated for 6 hrs; format: functional, cell-based
Mus musculus [37] = test: Antiinflammatory activity in DSS-induced acute colitis C57BL/6 mouse model assessed as reduction in lamina propria damage in colon by measuring histopathological score at 1 to 3 mg/kg, po by H and E staining based analysis; format: functional, organism-based; details: dose 1-3 mg/kg
Mus musculus [38] = test: Antiinflammatory activity in DSS-induced acute colitis C57BL/6 mouse model assessed as reduction stool softness by measuring DAI score at 1 to 3 mg/kg, po administered daily and measured upto 11 days; format: functional, organism-based; details: dose 1-3 mg/kg, time <= 11.0 day
[39] = Toxicity in mouse assessed as abnormal change in lung at 20 to 50 mg/kg, IG measured upto 2 weeks; format: organism-based; details: in vivo, po, 336 h, dose 20-50 mg/kg
Mus musculus [40] = test: Anti-inflammatory bowl disease activity in DSS-induced acute enteritis mouse model assessed as increase in norank_f_Muribaculaceae abundance at 3 mg/kg; format: functional, organism-based

Cc1nc2cnc3ccc(-c4cc(Cl)c(O)c(Cl)c4)cc3c2n1C1CCN(C)CC1
0.0089 µM: IC50 [28]
Non-Toxic: Activity [7] | Activity [14] | Activity [19] | Activity [24] | Activity [25] | Activity [26] | Activity [29] | Activity [30] | Activity [39]
4.3 µM: IC50 at 24 h [9]
10.81%: Activity (Mus musculus [20])
active: Activity (THP1-Dual [1]) | Activity (Mus musculus [2]) | Activity (Mus musculus [3]) | Activity (THP1-Dual [4]) Dde | Activity (Mus musculus [5]) | Activity (Mus musculus [6]) | Activity (THP1-Dual [8]) | Activity (Mus musculus [10]) | inhibition (THP1-Dual [11]) | Activity (THP1-Dual [12]) | Activity (Mus musculus [13]) | Activity (Mus musculus [15]) | inhibition (THP1-Dual [16]) | Activity (Mus musculus [17]) | inhibition (THP1-Dual [18]) | Activity (Mus musculus [21]) | Activity (THP1-Dual [22]) Dde | Activity (Mus musculus [23]) | Activity (THP1-Dual [31]) Dde | inhibition (THP1-Dual [32]) | Activity (Mus musculus [33]) | Activity (Mus musculus [34]) | Activity (THP1-Dual [35]) Dde | Activity (THP1-Dual [36]) | Activity (Mus musculus [37]) | Activity (Mus musculus [38]) | Activity (Mus musculus [40])
> 10 µM: IC50 at 24 h [27]
